Measurements taken from patent US20230407243A1, “GENETIC PLATFORM TO INVESTIGATE THE FUNCTIONS OF BACTERIAL DRUG EFFLUX PUMPS” (priority 2022, published 2023).
Where two headings read alike, the source gives them in different places.

Assays:
Assay type in all cases: cell-based, Escherichia coli
[1] = system: wild-type E. coli K-12 str. BW25113; assay: microbe, parasite or virus in culture; conditions: Escherichia coli, BW25113, technical duplicate
Description: (§1) Single colonies were used to inoculate 3 mL of LB followed by incubation at 37° C. for 18 h with aeration at 220 rpm. The bacterial cells were harvested by centrifugation and resuspended in phosphate buffered saline (PBS) ([pH 7.4], 137 mM NaCl (Bioshop), 2.7 mM KCl (Bioshop), 10 mM Na2PO4 (Bioshop) and 1.8 mM K2PO4) to an OD600 nm˜1.0, followed by 1/2000 dilution into MHB II.
(§2) To a 384-well microtiter plate (Corning, untreated polystyrene), 500 nL of compound was dispensed, in duplicate, and serially titrated 2-fold using an Echo 550 acoustic liquid dispenser (Labcyte Inc.). […] As a solvent control, 500 nL of DMSO was applied to wells that contained no compound. Using a multichannel pipette, 50 μL of the prepared bacterial inoculum was applied to each well. To enable background correction post-incubation, the OD600 nm was measured (Biotek Synergy Neo2 microplate reader) prior to incubation. The plates were incubated at 37° C. with aeration at 900 rpm for 18 h. The plates were equilibrated to room temperature and the OD600 nm measured using a BioTek Synergy Neo2 microplate reader. Data was analyzed in both Prism (GraphPad, Version 9.2.0) and Microsoft Excel (Version 16.53). Raw data were input into Microsoft Excel and the pre-incubation OD600 nm measurements were subtracted from the post-incubation OD600 nm measurements. These corrected measurements were input into Prism 9 as a grouped analysis. […] All other MIC values were adjusted accordingly and visualized using the single-color scale grouped heat map function. Identification of compound chemical properties was achieved using DataWarrior (Version 5.5.0). Using PubChem, the SMILES chemical notation for each compound was obtained and compiled in Microsoft Excel. The resulting spreadsheet was input into DataWarrior and properties were calculated from the compound chemical structures.

E. coli ΔtolC = assay: microbe, parasite or virus in culture
Description: as §1, §2

E. coli EKO-35 = assay: microbe, parasite or virus in culture; conditions: Escherichia coli, EKO35, technical duplicate
Description: as §1, §2

EKO-35 araC::mdtBC Pore = assay: MIC susceptibility profiling, porinated efflux platform; conditions: Escherichia coli; EKO-35 araC::mdtBC Pore; technical duplicate; read-out: Minimum inhibitory concentration
Description: (§3) For genomic integration of the pore, the fhuA ΔC/Δ4L gene and the adjacent gentamicin resistance cassette were amplified using a high-fidelity polymerase and the fhuA_40_Up/gImS_3680_Low primers (Table 4). Integration of the pore gene was performed as described above. The pore gene was introduced into the intergenic region between the glmS and pstS genes, with gene expression under the control of a constitutive promoter (Kearse, M. et al., 2012). Genomic integrations were verified using PCR (Primers: pstS_520_Up/glmS_3680_Low, Table 4). Successful integrations were transformed with pCP20 to remove the gentamicin resistance cassette as previously described. Activity of the pore was confirmed through susceptibility testing with the large antibiotic vancomycin prior to phenotypic profiling and further susceptibility testing.
as §1, §2

EKO-35 araC::acrD Pore = assay: as above; conditions: Escherichia coli; Table 14A; porinated; technical duplicate; read-out: Minimum inhibitory concentration, EKO-35 araC::acrD Pore
Description: as §3, §1, §2

EKO-35 araC::macAB Pore = assay: as above; conditions: Escherichia coli; EKO-35 araC::macAB Pore; technical duplicate; read-out: Minimum inhibitory concentration
Description: as §3, §1, §2

EKO-35 araC::emrKY Pore = assay: as above; conditions: Escherichia coli; EKO-35 araC::emrKY Pore; technical duplicate; read-out: Minimum inhibitory concentration
Description: as §3, §1, §2

EKO-35 araC::mdtEF Pore = assay: as above; conditions: Escherichia coli; Table 14A; porinated; technical duplicate; read-out: Minimum inhibitory concentration, EKO-35 araC::mdtEF Pore
Description: as §3, §1, §2

EKO-35 araC::acrB Pore = assay: as above; conditions: Escherichia coli; Table 14A; porinated; technical duplicate; read-out: Minimum inhibitory concentration, EKO-35 araC::acrB Pore
Description: as §3, §1, §2

EKO-35 araC::acrEF Pore = assay: as above; conditions: Escherichia coli; Table 14A; porinated; technical duplicate; read-out: Minimum inhibitory concentration, EKO-35 araC::acrEF Pore
Description: as §3, §1, §2

[2] = system: EKO-35 araC::acrBD408A Pore; assay: as above; conditions: Escherichia coli; EKO-35 araC::acrBD408A Pore; technical duplicate; read-out: Minimum inhibitory concentration
Description: as §3, §1, §2

wild-type (WT) K-12-Pore = assay: microbe, parasite or virus in culture; conditions: Escherichia coli, technical duplicate
Description: as §3, §1, §2

ΔtolC-Pore = assay: microbe, parasite or virus in culture
Description: as §3, §1, §2

EKO-35 araC::acrEF = assay: MIC susceptibility profiling, efflux platform; conditions: Escherichia coli; Table 13A; non-porinated; technical duplicate; read-out: Minimum Inhibitory Concentration, EKO-35 araC::acrEF
Description: as §1, §2

[3] = system: EKO-35 araC::mexCD (MexCD from P. aeruginosa); assay: MIC susceptibility profiling, efflux platform; conditions: Table 13B; non-porinated; technical duplicate; read-out: Minimum Inhibitory Concentration, EKO-35 araC::mexCD
Description: as §1, §2

EKO-35 araC::acrB = assay: MIC susceptibility profiling, efflux platform; conditions: Escherichia coli; Table 13A; non-porinated; technical duplicate; read-out: Minimum Inhibitory Concentration, EKO-35 araC::acrB
Description: as §1, §2

EKO-35-Pore = assay: MIC susceptibility profiling, porinated strain; conditions: Escherichia coli, technical duplicate
Description: as §3, §1, §2

O=C(O)c1cn(C2CC2)c2cc(N3CCNCC3)c(F)cc2c1=O [ciprofloxacin]
9 ng/mL: MIC (EKO-35 araC::acrB Pore)
20 ng/mL: MIC (EKO-35 araC::acrEF) | MIC (EKO-35 araC::acrB)
10 ng/mL: MIC ([1]; Table 10, without pore, read-out: Minimum inhibitory concentration (MIC), K-12) | MIC ([1]; Table 13A, non-porinated, read-out: Minimum Inhibitory Concentration, K-12) | MIC (EKO-35 araC::acrEF Pore) | MIC [3]
5 ng/mL: MIC (E. coli ΔtolC; Escherichia coli, 18 h, read-out: Minimum Inhibitory Concentration, ΔtolC) | Minimum inhibitory concentration (MIC), ΔtolC (E. coli ΔtolC; Table 10, without pore, technical duplicate) | MIC (E. coli EKO-35; Table 10, without pore, read-out: Minimum inhibitory concentration (MIC), EKO-35) | MIC (E. coli EKO-35; Table 13A, non-porinated, read-out: Minimum Inhibitory Concentration, EKO-35) | MIC (wild-type (WT) K-12-Pore; Table 10, with pore, read-out: Minimum inhibitory concentration (MIC), Pore K-12) | MIC (wild-type (WT) K-12-Pore; Table 14A, porinated, read-out: Minimum inhibitory concentration, K-12 (WT)-Pore)
2 ng/mL: MIC (EKO-35 araC::mdtBC Pore) | MIC (EKO-35 araC::acrD Pore) | MIC (EKO-35 araC::macAB Pore) | MIC (EKO-35 araC::emrKY Pore) | MIC (EKO-35 araC::mdtEF Pore) | MIC [2] | MIC (ΔtolC-Pore; Escherichia coli, 18 h, read-out: Minimum inhibitory concentration, ΔtolC-Pore) | Minimum inhibitory concentration (MIC), Pore ΔtolC (ΔtolC-Pore; Table 10, with pore, technical duplicate) | MIC (EKO-35-Pore; Table 10, with pore, read-out: Minimum inhibitory concentration (MIC), Pore EKO-35) | MIC (EKO-35-Pore; Table 14A, porinated, read-out: Minimum inhibitory concentration, EKO-35-Pore)
